The text below walks through data of patent US20240180887A1, “USE OF PPAR(gamma) AGONISTS OR MPC INHIBITORS FOR TREATING PRIMARY, INNATE DISEASES OF THE CARDIAC MUSCLE (CARDIOMYOPATHIES)” (PREVENTAGE THERAPEUTICS GMBH, priority 2021, published 2024).

The test system of experiment [1] is αMHC^719/+ HCM mouse model. The experiment in a line: Preclinical αMHC^719/+ HCM mouse model, overall summary of results. In kind it is in vivo. To be noted: oral administration in the αMHC^719/+ HCM mouse model. The procedure:
The examinations were carried out on an established HCM mouse model, in which an arginine-to-tryptophan mutation at position 719 of the heavy chain of the cardiac mouse alpha-myosin gene was effected by homologous recombination (referred to as αMHC^719/+)^38. Such genetically modified mice increasingly develop the typical pathognomonic disease characteristics of hypertrophic cardiomyopathy such as myocardial hypertrophy and fibrosis with increasing age. The phenotype of this genetically generated HCM mouse model thus simulates the phenotype of HCM patients affected^36,37,38. The manifestation of the disease can be accelerated by subcutaneous administration of the calcineurin inhibitor cyclosporin A (CsA)^9.
Between their 6th and 12th postnatal week, all mice were injected subcutaneously with cyclosporin A (CsA) to accelerate hypertrophic remodeling in the myocardium in the HCM mouse model^9. Half of the mice were treated with the PPARγ agonists rosiglitazone and pioglitazone from the group of thiazolidinediones between their 6th and 12th postnatal week. In their 12th postnatal week, they were subjected to in vivo transthoracic echocardiography. The animals were then euthanized for ex vivo examination (organ removal, histopathology, and determination of radical oxygen species, of mRNA and protein expression in the tissue) (see FIG. 10).D

In a further experiment the test system is PPARγ mRNA. The experiment in a line: Relative expression of PPARγ mRNA in the left ventricular myocardium (RtPCR). In kind it is in vivo, mouse. To be noted: αMHC^719/+ mice, oral rosiglitazone, 6 weeks, compared to wild-type level. The procedure:
FIG. 7 Relative expression of PPARγ mRNA in the left ventricular myocardium of untreated HCM mice and HCM mice (αMHC^719/+) treated with N-acetylcysteine (NAC) or rosiglitazone (Rosi) compared to wild-type mice (WT) after 6 weeks; ***: p<0.001.
RNA isolation was carried out by means of the peqGOLD Total RNA Kit (Peqlab) from the left ventricular myocardium according to the manufacturer's instructions. First-strand cDNA was synthesized from 500 ng of total RNA, which is reverse-transcribed (Reverse Transcription Kit, Invitrogen) with random hexamers (TIB Molbiol). RtPCR analysis is carried out with Perfecta SYBR Green fast Mix (VWR, Germany) in the QIAGEN Rotor-Gene Q (Corbett Rotor-Gene 6000). Quantification is done by means of […] calculation and randomization test^49,50.

Experiment [2] deals with HCM mice (αMHC^719/+). In words: Semi-quantitative myocardial fibrosis score on Masson's trichrome sections, stereoisomers of pioglitazone (experimental setup C). Format: in vivo, mouse. Particulars: αMHC^719/+ mice, 10 mg/kg/day orally, 6 weeks, vs untreated αMHC^719/+. The procedure:
FIG. 13 Determination of myocardial fibrosis using histopathological sections of myocardium. The manifestation of myocardial fibrosis (blue-colored in the Masson's trichrome-stained histological sections) was determined semi-quantitatively by two blinded examiners in each case independently of one another. The scores assigned were 0 to 3:0: no fibrosis, 1: mild fibrosis; 2: moderate fibrosis, 3: severe fibrosis; 0.5: no to mild fibrosis, 1.5: mild to moderate fibrosis; 2.5: moderate to severe fibrosis, 3: severe fibrosis. The animals were genotyped in their 3rd postnatal week (as also described in accordance with experimental setup A). Between their 6th and 12th postnatal week, all 65 mice were orally administered a daily dose of 30 mg/kg cyclosporin A (CsA) which was added to their pellet diet to accelerate hypertrophic remodeling in the myocardium in the HCM mouse model^56. Between their 6th and 12th postnatal week, (a) 13 WT and 9 MHC^719/+ mice were in addition treated orally with the (R)-stereoisomer of a thiazolidinedione (pioglitazone) (10 mg/kg/day) or (b) 12 WT and 11 αMHC^719/+ mice were in addition treated orally with the (S)-stereoisomer (pioglitazone) (10 mg/kg/day). In their 12th postnatal week, they were subjected to in vivo transthoracic echocardiography. The animals were then euthanized for ex vivo examination (organ removal and histopathology) (see FIG. 11). Examination by echocardiography was done as follows—specifically: removal of the mice from the cage, weighing and visual assessment of the animals, performance of echocardiography according to standardized, published standard protocols in conscious animals after 30 minutes of observation^39,41,37,40. In order to quantify fibrosis, the removed hearts were fixed in 4% of paraformaldehyde, dehydrated, and placed in paraffin, as described above^37,42,43. 5-μm sections were stained with Masson's trichrome. Semi-quantification of myocardial fibrosis was done independently of one another by two blinded examiners. For this purpose, the percentage of cardiac muscle portions stained blue with Masson's trichrome in relation to the overall stained cardiac muscle was calculated. Perivascular and intramurine structures, the endocardium, and trabeculas were excluded in the calculation of the percentage of fibrosis. The classification was “no fibrosis,” “mild fibrosis,” “moderate fibrosis,” and “severe fibrosis.”

Experiment [3] has as its system HCM mice (αMHC^719/+). In words: Echocardiography: maximum left ventricular wall thickness, stereoisomers of pioglitazone (experimental setup C). Format: in vivo, mouse. To be noted: αMHC^719/+ mice, 10 mg/kg/day orally, 6 weeks, vs untreated αMHC^719/+. The text has this:
This experimental protocol examined the action of the two stereoisomers of a thiazolidinedione (pioglitazone) ((S)- and (R)-stereoisomers) in the same hypertrophic cardiomyopathy mouse model as described for experimental setup A. The experimental setup is thus similar to the experimental setup according to A. The animals were genotyped in their 3rd postnatal week (as also described in accordance with experimental setup A). Between their 6th and 12th postnatal week, all 65 mice were orally administered a daily dose of 30 mg/kg cyclosporin A (CsA) which was added to their pellet diet to accelerate hypertrophic remodeling in the myocardium in the HCM mouse model^56. Between their 6th and 12th postnatal week, (a) 13 WT and 9 MHC^719/+ mice were in addition treated orally with the (R)-stereoisomer of a thiazolidinedione (pioglitazone) (10 mg/kg/day) or (b) 12 WT and 11 αMHC^719/+ mice were in addition treated orally with the (S)-stereoisomer (pioglitazone) (10 mg/kg/day). In their 12th postnatal week, they were subjected to in vivo transthoracic echocardiography. The animals were then euthanized for ex vivo examination (organ removal and histopathology) (see FIG. 11). As shown in experimental setup A, in vivo phenotyping of the left ventricular wall thickness and ventricular function was done by means of transthoracic echocardiography, as described above^40,41,39. Examination by echocardiography was done as follows—specifically: removal of the mice from the cage, weighing and visual assessment of the animals, performance of echocardiography according to standardized, published standard protocols in conscious animals after 30 minutes of observation^39,41,37,40. In order to quantify fibrosis, the removed hearts were fixed in 4% of paraformaldehyde, dehydrated, and placed in paraffin, as described above^37,42,43. […] Semi-quantification of myocardial fibrosis was done independently of one another by two blinded examiners. For this purpose, the percentage of cardiac muscle portions stained blue with Masson's trichrome in relation to the overall stained cardiac muscle was calculated. […]

Where [4] appears, read: (R)-Pio p=0.01, (S)-Pio p=0.916.
Setting [5] is: (R)-Pio p<0.001, (S)-Pio p=0.072.

“Also recorded” adds a separate entry of the source.

For the molecule `CN(CCOc1ccc(CC2SC(=O)NC2=O)cc1)c1ccccn1` (racemic) [rosiglitazone, (RS)-5-({4-[2-(methyl-2-pyridinylamino)ethoxy]phenyl}methyl)-2,4-thiazolidinedione], the “changes in biophysical properties in the heart muscle cell and onset of myocardial hypertrophy and fibrosis” value in experiment [1] is recorded as “largely prevents”. The “myocardial mRNA expression of PPARγ” value in the experiment on PPARγ mRNA is reported as “increases the myocardial mRNA expression of PPARγ again almost completely to wild-type level”.
With `CCc1ccc(CCOc2ccc(C[C@@H]3SC(=O)NC3=O)cc2)nc1` (single isomer, unassigned) [(S)-stereoisomer of pioglitazone], the “development of myocardial fibrosis (semi-quantitative score 0 to 3)” value with HCM mice (αMHC^719/+) [2] (setting [4]) is reported as “not in a reduction of myocardial fibrosis”; in the experiment with HCM mice (αMHC^719/+) [2] ((R)-Pio p=0.01, (S)-Pio p=0.916, listed as S-stereoisomer of pioglitazone), “cannot be seen”. Moreover, the “development of myocardial hypertrophy (maximum thickness of the wall of the left ventricle)” value with HCM mice (αMHC^719/+) [3] (setting [5]) is recorded as “tends to result in lessened hypertrophy; also recorded: less pronounced”.
For the molecule `CCc1ccc(CCOc2ccc(C[C@H]3SC(=O)NC3=O)cc2)nc1` (single isomer, unassigned) [(R)-stereoisomer of pioglitazone], the “development of myocardial fibrosis (semi-quantitative score 0 to 3)” value in the experiment on HCM mice (αMHC^719/+) [2] (setting [4]) was “significantly inhibited”; in the experiment on HCM mice (αMHC^719/+) [2] ((R)-Pio p=0.01, (S)-Pio p=0.916, listed as (R)-stereoisomer of a thiazolidinedione), “significantly lessened”. Further, the “development of myocardial hypertrophy (maximum thickness of the wall of the left ventricle)” value with HCM mice (αMHC^719/+) [3] (setting [5]) is on record as “significantly inhibited”; in the experiment on HCM mice (αMHC^719/+) [3] ((R)-Pio p<0.001, (S)-Pio p=0.072, listed as (R)-stereoisomer of a thiazolidinedione) it was “significantly lessened”.
